Measurements reported in article PMC8800111 (The Journal of Biological Chemistry, 2021).

Assays:
Format in all cases: cell-based
[1] = target: proteins of U3A human fibrosarcoma cells (4462 proteins detected) (Homo sapiens, UniProt O00391); settings: protein QSOX1; U3A cells
[2] = target: proteins of U3A human fibrosarcoma cells (4462 proteins detected) (Homo sapiens, UniProt O75347); settings: protein TBCA, U3A cells
[3] = target: proteins of U3A human fibrosarcoma cells (4462 proteins detected) (Homo sapiens, UniProt O95292); settings: protein VAPB; U3A cells
[4] = target: proteins of U3A human fibrosarcoma cells (4462 proteins detected) (Homo sapiens, UniProt P27824); settings: protein CANX; soluble abundance after heat, U3A cells
[5] = target: proteins of U3A human fibrosarcoma cells (4462 proteins detected) (Homo sapiens, UniProt P46087); settings: protein NOP2; U3A cells
[6] = target: proteins of U3A human fibrosarcoma cells (4462 proteins detected) (Homo sapiens, UniProt P49207); settings: protein RPL34; U3A cells
[7] = target: proteins of U3A human fibrosarcoma cells (4462 proteins detected) (Homo sapiens, UniProt P51648); settings: protein ALDH3A2; U3A cells
[8] = target: proteins of U3A human fibrosarcoma cells (4462 proteins detected) (Homo sapiens, UniProt P56277); settings: protein CMC4; U3A, 10 μM, 2 h
[9] = target: proteins of U3A human fibrosarcoma cells (4462 proteins detected) (Homo sapiens, UniProt P78316); settings: protein NOP14; U3A cells
[10] = target: proteins of U3A human fibrosarcoma cells (4462 proteins detected) (Homo sapiens, UniProt P78317); settings: protein RNF4, U3A cells
[11] = target: proteins of U3A human fibrosarcoma cells (4462 proteins detected) (Homo sapiens, UniProt Q12805); settings: protein EFEMP1; U3A cells
[12] = target: proteins of U3A human fibrosarcoma cells (4462 proteins detected) (Homo sapiens, UniProt Q12893); settings: protein TMEM115; U3A, 10 μM, 2 h
[13] = target: proteins of U3A human fibrosarcoma cells (4462 proteins detected) (Homo sapiens, UniProt Q15051); settings: protein IQCB1; U3A, 10 μM, 2 h
[14] = target: proteins of U3A human fibrosarcoma cells (4462 proteins detected) (Homo sapiens, UniProt Q15599); settings: protein SLC9A3R2, U3A cells
[15] = target: proteins of U3A human fibrosarcoma cells (4462 proteins detected) (Homo sapiens, UniProt Q16658); settings: protein FSCN1, U3A cells
[16] = target: proteins of U3A human fibrosarcoma cells (4462 proteins detected) (Homo sapiens, UniProt Q5T5Y3); settings: protein CAMSAP1; soluble abundance after heat, U3A cells
[17] = target: proteins of U3A human fibrosarcoma cells (4462 proteins detected) (Homo sapiens, UniProt Q7L2H7); settings: protein EIF3M; U3A cells
[18] = target: proteins of U3A human fibrosarcoma cells (4462 proteins detected) (Homo sapiens, UniProt Q7Z4W1); settings: protein DCXR; soluble abundance after heat, U3A cells
[19] = target: proteins of U3A human fibrosarcoma cells (4462 proteins detected) (Homo sapiens, UniProt Q8IVD9); settings: protein NUDCD3; soluble abundance after heat, U3A cells
[20] = target: proteins of U3A human fibrosarcoma cells (4462 proteins detected) (Homo sapiens, UniProt Q8IXQ4); settings: protein GPALPP1, U3A cells
[21] = target: proteins of U3A human fibrosarcoma cells (4462 proteins detected) (Homo sapiens, UniProt Q9BXY0); settings: protein MAK16; soluble abundance after heat, U3A cells
[22] = target: proteins of U3A human fibrosarcoma cells (4462 proteins detected) (Homo sapiens, UniProt Q9H1D9); settings: protein POLR3F; U3A cells
[23] = target: proteins of U3A human fibrosarcoma cells (4462 proteins detected) (Homo sapiens, UniProt Q9H2U1); settings: protein DHX36, U3A cells
[24] = target: proteins of U3A human fibrosarcoma cells (4462 proteins detected) (Homo sapiens, UniProt Q9HC36); settings: protein RNMTL1; U3A cells
[25] = target: proteins of U3A human fibrosarcoma cells (4462 proteins detected) (Homo sapiens, UniProt Q9HC44); settings: protein GPBP1L1; soluble abundance after heat, U3A cells
[26] = target: proteins of U3A human fibrosarcoma cells (4462 proteins detected) (Homo sapiens, UniProt Q9NT62); settings: protein ATG3; soluble abundance after heat, U3A cells
[27] = target: proteins of U3A human fibrosarcoma cells (4462 proteins detected) (Homo sapiens, UniProt Q9NVH2); settings: protein INTS7; soluble abundance after heat, U3A cells
[28] = target: proteins of U3A human fibrosarcoma cells (4462 proteins detected) (Homo sapiens, UniProt Q9UIS9); settings: protein MBD1; U3A cells
[29] = target: proteins of U3A human fibrosarcoma cells (4462 proteins detected) (Homo sapiens, UniProt Q9UK53); settings: protein ING1; U3A, 10 μM, 2 h
[30] = target: proteins of U3A human fibrosarcoma cells (4462 proteins detected) (Homo sapiens, UniProt Q9UKV5); settings: protein AMFR; U3A cells

Sequence of proteins of U3A human fibrosarcoma cells (4462 proteins detected) (Homo sapiens, UniProt Q8IVD9) (Q8IVD9 whole entry): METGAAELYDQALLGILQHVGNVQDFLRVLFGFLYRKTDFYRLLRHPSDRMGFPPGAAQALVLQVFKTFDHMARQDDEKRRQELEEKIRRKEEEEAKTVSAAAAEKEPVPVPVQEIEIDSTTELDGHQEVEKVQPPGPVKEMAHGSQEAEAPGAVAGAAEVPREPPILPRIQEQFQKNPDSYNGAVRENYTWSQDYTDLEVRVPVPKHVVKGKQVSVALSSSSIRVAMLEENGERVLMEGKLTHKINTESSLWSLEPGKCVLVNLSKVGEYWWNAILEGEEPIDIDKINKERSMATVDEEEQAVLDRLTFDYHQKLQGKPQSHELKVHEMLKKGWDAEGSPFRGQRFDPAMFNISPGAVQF
Sequence of proteins of U3A human fibrosarcoma cells (4462 proteins detected) (Homo sapiens, UniProt O75347) (O75347 whole entry): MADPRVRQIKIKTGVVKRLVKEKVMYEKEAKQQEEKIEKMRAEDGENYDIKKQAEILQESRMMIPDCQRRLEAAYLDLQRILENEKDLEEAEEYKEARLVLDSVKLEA
Sequence of proteins of U3A human fibrosarcoma cells (4462 proteins detected) (Homo sapiens, UniProt Q9UK53) (Q9UK53 whole entry): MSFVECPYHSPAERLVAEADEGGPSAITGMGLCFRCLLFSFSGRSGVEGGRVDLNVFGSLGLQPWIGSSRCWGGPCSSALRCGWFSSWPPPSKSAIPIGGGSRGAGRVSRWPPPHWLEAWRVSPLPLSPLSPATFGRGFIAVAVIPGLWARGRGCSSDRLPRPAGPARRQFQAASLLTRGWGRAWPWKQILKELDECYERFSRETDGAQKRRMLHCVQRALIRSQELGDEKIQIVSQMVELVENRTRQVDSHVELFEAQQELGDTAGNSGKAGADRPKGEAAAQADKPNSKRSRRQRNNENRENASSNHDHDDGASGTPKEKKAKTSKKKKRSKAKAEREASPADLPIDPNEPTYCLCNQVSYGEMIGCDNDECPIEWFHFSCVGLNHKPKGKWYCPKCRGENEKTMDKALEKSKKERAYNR
Sequence of proteins of U3A human fibrosarcoma cells (4462 proteins detected) (Homo sapiens, UniProt Q12805) (Q12805 18-493): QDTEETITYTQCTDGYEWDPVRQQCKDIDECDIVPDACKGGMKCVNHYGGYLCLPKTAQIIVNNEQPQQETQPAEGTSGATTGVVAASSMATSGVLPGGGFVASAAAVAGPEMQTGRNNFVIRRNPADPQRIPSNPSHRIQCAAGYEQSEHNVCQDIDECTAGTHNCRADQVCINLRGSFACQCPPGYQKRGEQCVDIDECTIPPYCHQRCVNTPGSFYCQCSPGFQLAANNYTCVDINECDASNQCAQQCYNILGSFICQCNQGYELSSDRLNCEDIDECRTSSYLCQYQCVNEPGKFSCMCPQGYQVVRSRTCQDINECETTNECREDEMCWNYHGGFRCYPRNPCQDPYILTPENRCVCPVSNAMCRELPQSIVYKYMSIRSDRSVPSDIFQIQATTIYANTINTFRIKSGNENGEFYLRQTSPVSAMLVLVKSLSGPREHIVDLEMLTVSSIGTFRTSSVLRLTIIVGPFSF
Sequence of proteins of U3A human fibrosarcoma cells (4462 proteins detected) (Homo sapiens, UniProt Q12893) (Q12893 whole entry): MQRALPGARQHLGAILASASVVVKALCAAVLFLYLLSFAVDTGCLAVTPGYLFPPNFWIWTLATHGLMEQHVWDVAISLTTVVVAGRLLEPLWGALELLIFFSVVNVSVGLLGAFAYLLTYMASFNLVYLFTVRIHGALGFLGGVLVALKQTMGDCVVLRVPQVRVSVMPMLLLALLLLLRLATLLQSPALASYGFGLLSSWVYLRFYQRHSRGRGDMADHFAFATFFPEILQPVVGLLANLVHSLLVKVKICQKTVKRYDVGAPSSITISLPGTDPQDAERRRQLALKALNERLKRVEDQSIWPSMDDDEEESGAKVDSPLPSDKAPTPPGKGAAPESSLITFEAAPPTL
Sequence of proteins of U3A human fibrosarcoma cells (4462 proteins detected) (Homo sapiens, UniProt Q8IXQ4) (Q8IXQ4 whole entry): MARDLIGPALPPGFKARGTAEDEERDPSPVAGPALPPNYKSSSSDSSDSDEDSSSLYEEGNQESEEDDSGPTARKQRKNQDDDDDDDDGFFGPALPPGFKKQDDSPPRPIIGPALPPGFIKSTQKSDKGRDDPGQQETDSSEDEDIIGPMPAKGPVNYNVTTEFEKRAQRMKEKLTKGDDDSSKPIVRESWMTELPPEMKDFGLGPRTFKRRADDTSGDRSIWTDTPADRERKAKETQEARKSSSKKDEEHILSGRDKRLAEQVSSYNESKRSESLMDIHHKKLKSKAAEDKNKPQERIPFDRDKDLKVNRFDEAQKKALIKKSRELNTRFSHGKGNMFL
Sequence of proteins of U3A human fibrosarcoma cells (4462 proteins detected) (Homo sapiens, UniProt Q9NT62) (Q9NT62 whole entry): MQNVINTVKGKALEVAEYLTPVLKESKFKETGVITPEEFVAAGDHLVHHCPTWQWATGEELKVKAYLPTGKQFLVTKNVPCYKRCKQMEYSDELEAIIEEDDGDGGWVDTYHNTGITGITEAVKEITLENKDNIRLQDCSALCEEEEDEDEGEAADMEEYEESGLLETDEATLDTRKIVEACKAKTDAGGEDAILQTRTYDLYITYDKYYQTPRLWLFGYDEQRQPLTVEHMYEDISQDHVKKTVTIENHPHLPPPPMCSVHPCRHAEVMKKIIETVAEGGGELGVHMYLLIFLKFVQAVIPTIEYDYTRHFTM
Sequence of proteins of U3A human fibrosarcoma cells (4462 proteins detected) (Homo sapiens, UniProt Q9HC36) (Q9HC36 41-420): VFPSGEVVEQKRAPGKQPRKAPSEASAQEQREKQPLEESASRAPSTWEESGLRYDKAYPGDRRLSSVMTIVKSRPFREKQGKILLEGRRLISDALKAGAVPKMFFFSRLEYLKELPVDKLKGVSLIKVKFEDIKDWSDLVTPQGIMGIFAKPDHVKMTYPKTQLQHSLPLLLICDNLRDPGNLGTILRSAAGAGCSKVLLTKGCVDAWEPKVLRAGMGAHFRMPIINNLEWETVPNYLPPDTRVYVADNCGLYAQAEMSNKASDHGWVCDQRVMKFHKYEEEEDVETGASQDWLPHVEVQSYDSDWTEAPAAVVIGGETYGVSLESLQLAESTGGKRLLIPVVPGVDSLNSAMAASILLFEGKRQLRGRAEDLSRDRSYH
Sequence of proteins of U3A human fibrosarcoma cells (4462 proteins detected) (Homo sapiens, UniProt O00391) (O00391 30-747): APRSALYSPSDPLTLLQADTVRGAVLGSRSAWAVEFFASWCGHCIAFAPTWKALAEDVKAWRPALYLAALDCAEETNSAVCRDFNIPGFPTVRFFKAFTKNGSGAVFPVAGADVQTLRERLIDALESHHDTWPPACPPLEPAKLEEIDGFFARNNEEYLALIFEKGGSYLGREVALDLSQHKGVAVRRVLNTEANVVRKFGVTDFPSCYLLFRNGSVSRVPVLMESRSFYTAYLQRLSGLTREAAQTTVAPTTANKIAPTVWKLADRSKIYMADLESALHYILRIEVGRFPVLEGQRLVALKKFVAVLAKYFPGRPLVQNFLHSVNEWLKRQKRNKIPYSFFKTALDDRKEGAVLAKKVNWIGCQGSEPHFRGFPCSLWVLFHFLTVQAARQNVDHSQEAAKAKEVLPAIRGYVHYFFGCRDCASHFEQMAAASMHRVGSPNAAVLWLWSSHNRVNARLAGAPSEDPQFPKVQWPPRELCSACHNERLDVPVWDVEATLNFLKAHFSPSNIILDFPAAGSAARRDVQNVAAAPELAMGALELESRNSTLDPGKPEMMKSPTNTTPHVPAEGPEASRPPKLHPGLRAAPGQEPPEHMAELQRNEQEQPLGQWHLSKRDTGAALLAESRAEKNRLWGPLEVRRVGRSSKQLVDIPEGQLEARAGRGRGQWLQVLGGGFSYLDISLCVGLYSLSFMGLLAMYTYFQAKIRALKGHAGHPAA
Sequence of proteins of U3A human fibrosarcoma cells (4462 proteins detected) (Homo sapiens, UniProt Q7Z4W1) (Q7Z4W1 whole entry): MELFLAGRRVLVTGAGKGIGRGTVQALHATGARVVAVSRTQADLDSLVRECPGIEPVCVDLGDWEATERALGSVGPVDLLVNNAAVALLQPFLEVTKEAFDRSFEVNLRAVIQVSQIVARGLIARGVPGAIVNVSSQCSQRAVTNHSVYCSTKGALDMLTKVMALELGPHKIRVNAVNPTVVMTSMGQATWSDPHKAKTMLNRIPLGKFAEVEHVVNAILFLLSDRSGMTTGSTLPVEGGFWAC
Sequence of proteins of U3A human fibrosarcoma cells (4462 proteins detected) (Homo sapiens, UniProt Q9HC44) (Q9HC44 whole entry): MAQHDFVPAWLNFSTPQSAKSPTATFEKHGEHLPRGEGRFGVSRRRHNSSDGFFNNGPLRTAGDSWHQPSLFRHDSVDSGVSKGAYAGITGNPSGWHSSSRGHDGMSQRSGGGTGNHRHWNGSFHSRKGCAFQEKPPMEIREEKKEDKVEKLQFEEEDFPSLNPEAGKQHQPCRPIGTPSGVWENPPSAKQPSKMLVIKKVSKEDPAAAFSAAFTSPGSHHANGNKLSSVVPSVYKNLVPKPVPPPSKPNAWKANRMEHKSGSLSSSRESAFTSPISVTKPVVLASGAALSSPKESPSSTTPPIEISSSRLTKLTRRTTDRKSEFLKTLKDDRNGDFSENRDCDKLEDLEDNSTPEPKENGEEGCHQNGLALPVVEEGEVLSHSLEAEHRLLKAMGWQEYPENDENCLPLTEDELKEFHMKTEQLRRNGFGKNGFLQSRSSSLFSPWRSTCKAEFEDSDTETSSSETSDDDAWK
Sequence of proteins of U3A human fibrosarcoma cells (4462 proteins detected) (Homo sapiens, UniProt O95292) (O95292 whole entry): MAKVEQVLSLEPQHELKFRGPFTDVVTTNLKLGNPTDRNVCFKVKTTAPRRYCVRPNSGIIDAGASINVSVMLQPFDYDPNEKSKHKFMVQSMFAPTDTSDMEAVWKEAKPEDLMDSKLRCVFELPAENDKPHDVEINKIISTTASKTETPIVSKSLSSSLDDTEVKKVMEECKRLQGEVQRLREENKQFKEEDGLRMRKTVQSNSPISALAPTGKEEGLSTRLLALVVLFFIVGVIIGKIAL
Sequence of proteins of U3A human fibrosarcoma cells (4462 proteins detected) (Homo sapiens, UniProt Q15599) (Q15599 whole entry): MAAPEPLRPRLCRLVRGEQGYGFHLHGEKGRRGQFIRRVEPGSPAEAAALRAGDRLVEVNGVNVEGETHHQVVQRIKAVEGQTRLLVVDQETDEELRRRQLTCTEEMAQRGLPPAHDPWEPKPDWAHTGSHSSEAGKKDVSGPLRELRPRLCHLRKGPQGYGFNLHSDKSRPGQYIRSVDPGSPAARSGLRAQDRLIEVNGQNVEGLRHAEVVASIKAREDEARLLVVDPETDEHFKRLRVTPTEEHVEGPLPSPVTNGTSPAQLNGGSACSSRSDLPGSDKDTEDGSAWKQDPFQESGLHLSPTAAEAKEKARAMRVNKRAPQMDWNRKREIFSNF
Sequence of proteins of U3A human fibrosarcoma cells (4462 proteins detected) (Homo sapiens, UniProt P56277) (P56277 whole entry): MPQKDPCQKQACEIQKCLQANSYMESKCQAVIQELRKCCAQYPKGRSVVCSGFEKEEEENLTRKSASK

CCc1nc(N)nc(N)c1-c1ccc(Cl)cc1 [pyrimethamine]
Log2 (PYR/DMSO) [1]: 0.17 | Log2 (PYR/DMSO) [2]: -0.04 | Log2 (PYR/DMSO) [3]: 0.19 | Log2 (PYR/DMSO) [4]: 0.14 | Log2 (PYR/DMSO) [5]: 0.16 | Log2 (PYR/DMSO) [6]: 0.21 | Log2 (PYR/DMSO) [7]: 0.16 | Log2 (PYR/DMSO), CMC4 [8]: 0.24 | Log2 (PYR/DMSO) [9]: 0.15 | Log2 (PYR/DMSO) [10]: -0.04 | Log2 (PYR/DMSO) [11]: 0.18 | Log2 (PYR/DMSO), TMEM115 [12]: 0.38 | Log2 (PYR/DMSO), IQCB1 [13]: -0.16 | Log2 (PYR/DMSO) [14]: -0.05 | Log2 (PYR/DMSO) [15]: -0.04 | Log2 (PYR/DMSO) [16]: 0.13 | Log2 (PYR/DMSO) [17]: 0.18 | Log2 (PYR/DMSO) [18]: 0.14 | Log2 (PYR/DMSO) [19]: 0.15 | Log2 (PYR/DMSO) [20]: -0.04 | Log2 (PYR/DMSO) [21]: 0.14 | Log2 (PYR/DMSO) [22]: 0.17 | Log2 (PYR/DMSO) [23]: -0.03 | Log2 (PYR/DMSO) [24]: 0.21 | Log2 (PYR/DMSO) [25]: 0.14 | Log2 (PYR/DMSO) [26]: 0.13 | Log2 (PYR/DMSO) [27]: 0.15 | Log2 (PYR/DMSO) [28]: 0.19 | Log2 (PYR/DMSO), ING1 [29]: -0.22 | Log2 (PYR/DMSO) [30]: 0.16
